Assay results published in patent publication US7902361B2, “Pyrimidin-4-yl-3, 4-thione compounds and their use in therapy” (Cyclacel Limited, priority 2003, dated 2011).
Marks after values point to notes of the source that are not given here.

Assays:
[1] = biological target: CDK1/cyclin B (Homo sapiens, UniProt P06493); assay: Kinase assay CDK1/cyclin B (radioactive phosphate incorporation); format: biochemical; settings: Ki calculated (Cheng-Prusoff) from experimentally determined IC50 and Km,ATP; read-out: Kinase Inhibition Ki CDK1 - cyclin B
Outline: (§1)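 Radiometric assays measured transfer of radioactive phosphate from ATP onto polypeptide substrates, using 2-4 μg recombinant active enzyme in buffer typically containing 25 mM β-glycerophosphate, 20 mM MOPS, 5 mM EGTA, 1 mM DTT and 1 mM Na3VO3 at pH 7.4. Reactions were stopped on ice, filtered on P81 or GF/C plates and washed with orthophosphoric acid. Incorporated radioactivity was scintillation-counted.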

[2] = tested on: HIV-1; settings: HIV-1 in human PBMCs, seven days following infection
Description: Representative compounds of the present invention were tested for antiviral activity against HIV-1 in human peripheral blood mononuclear cells (PBMCs) using the clinical paediatric HIV strains RoJo or WeJo. PBMCs were cultured under conditions which promote cell survival and HIV replication.
Fresh PBMCs, seronegative for HIV and HBV, were isolated from screened donors (Interstate Blood Bank, Inc. Memphis, Tenn.). Cells were pelleted/washed 2-3 times by low speed centrifugation and re-suspension in PBS to remove contaminating platelets. […] Banded PBMCs were gently aspirated from the resulting interface and subsequently washed with PBS by low speed centrifugation. […] The cells were allowed to incubate at 37° C. […] IL-2 is included in the culture medium to maintain the cell division initiated by the PHA mitogenic stimulation. PBMCs were maintained in this with bi-weekly medium changes until used in the assay protocol. Cells were kept in culture for a maximum of two weeks before being deemed too old for use in assays and discarded. Monocytes were depleted from the culture as the result of adherence to the tissue culture flask.
For the standard PBMC assay, PHA-P stimulated cells from at least two normal donors were pooled, diluted and plated in the interior wells of a 96-well round bottom microplate. Pooling of mononuclear cells from more than one donor was used to minimise the variability observed between individual donors, which results from quantitative and qualitative differences in HIV infection and overall response to the PHA and IL-2 of primary lymphocyte populations. Each plate contained virus/cell control wells (cells plus virus), experimental wells (drug plus cells plus virus) and compound control wells (drug plus media without cells, necessary for MTS monitoring of cytotoxicity). Since HIV-1 is not cytopathic to PBMCs, this allows the use of the same assay plate for both antiviral activity and cytotoxicity measurements. Test drug dilutions were prepared in microtiter tubes and each concentration was placed in appropriate wells using the standard format. A predetermined dilution of virus stock was placed in each test well (final MOI≅0.1). The PBMC cultures were maintained for seven days following infection at 37° C., 5% CO2 After this period, cell-free supernatant samples were collected for analysis of reverse transcriptase activity and/or HIV p24 content. Following removal of supernatant samples, compound cytotoxicity was measured by addition of MTS to the plates for determination of cell viability. Wells were also examined microscopically and any abnormalities were noted.
Tritiated thymidine triphosphate (^3H-TTP, 80 Ci/mmol, NEN) was received in 1:1 dH2O:Ethanol at 1 mCi/mL. Poly rA:oligo dT template:primer (Pharmacia) was prepared as a stock solution, followed by aliquoting and storage at −20° C. The RT reaction buffer was prepared fresh on a daily basis. The final reaction mixture was prepared by combining ^3H-TTP, dH2O, poly rA:oligo dT stock and reaction buffer. This reaction mixture was placed in a round bottom microtiter plate and supernatant containing virus was added and mixed. The plate was incubated at 37° C. for 60 minutes. Following incubation, the reaction volume was spotted onto DE81 filter-mats (Wallac), in a sodium phosphate buffer or 2×SSC (Life Technologies). Next they were washed in distilled water, in 70% ethanol, and then dried. Incorporated radioactivity (counts per minute, CPM) was quantified using standard liquid scintillation techniques.

[3] = biological target: CDK9/cyclin T1 (Homo sapiens, UniProt P50750); assay: Kinase assay CDK9/cyclin T1; format: biochemical; settings: Ki calculated (Cheng-Prusoff) from experimentally determined IC50 and Km,ATP; read-out: Kinase Inhibition Ki CDK9 - cyclin T1
Outline: (§2)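 Radiometric filter assays used recombinant kinases or complexes (2-4 μg) with appropriate polypeptide substrates in pH 7.4 β-glycerophosphate/MOPS buffer. Reactions were started with 15 mM MgCl2 and 100 μM ATP containing [γ-32P]-ATP and run at 30° C. Phosphate incorporated into substrate was counted by scintillation after washing.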

[4] = biological target: CDK7/cyclin H (Homo sapiens, UniProt P50613); assay: Kinase assay CDK7/cyclin H; format: biochemical; settings: Ki calculated (Cheng-Prusoff) from experimentally determined IC50 and Km,ATP; read-out: Kinase Inhibition Ki CDK7 - cyclin H
Outline: as §2

[5] = biological target: CDK4/cyclin D1 (Homo sapiens, UniProt P11802); assay: Kinase assay CDK4/cyclin D1; format: biochemical; settings: Ki calculated (Cheng-Prusoff) from experimentally determined IC50 and Km,ATP; read-out: Kinase Inhibition Ki CDK4 - cyclin D1
Outline: as §2

[6] = biological target: T1, aurora A (Homo sapiens, UniProt O14965); assay: Kinase assay aurora A; format: biochemical; settings: Ki calculated (Cheng-Prusoff) from experimentally determined IC50 and Km,ATP; read-out: Kinase Inhibition Ki Aurora A
T1 sequence (O14965 1-403): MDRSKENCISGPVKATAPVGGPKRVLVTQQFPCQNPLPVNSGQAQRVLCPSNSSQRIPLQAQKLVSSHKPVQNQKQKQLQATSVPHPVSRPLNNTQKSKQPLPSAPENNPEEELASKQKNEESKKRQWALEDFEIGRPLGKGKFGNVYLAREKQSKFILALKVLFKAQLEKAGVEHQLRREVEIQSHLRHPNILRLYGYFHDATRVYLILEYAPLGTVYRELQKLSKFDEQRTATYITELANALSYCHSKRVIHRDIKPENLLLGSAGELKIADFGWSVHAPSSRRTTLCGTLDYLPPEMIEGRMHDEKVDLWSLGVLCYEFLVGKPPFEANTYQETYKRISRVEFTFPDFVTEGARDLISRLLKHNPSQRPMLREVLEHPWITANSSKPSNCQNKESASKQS
Description: The compounds from the examples above were investigated for their ability to inhibit the enzymatic activity of various protein kinases. This was achieved by measurement of incorporation of radioactive phosphate from ATP into appropriate polypeptide substrates. Recombinant protein kinases and kinase complexes were produced or obtained commercially. Assays were performed using 96-well plates and appropriate assay buffers (typically 25 mM β-glycerophosphate, 20 mM MOPS, 5 mM EGTA, 1 mM DTT, 1 mM […], pH 7.4), into which were added 2-4 μg of active enzyme with appropriate substrates. […] Reactions were stopped on ice, followed by filtration through p81 filterplates or GF/C filterplates (Whatman Polyfiltronics, Kent, UK). After washing 3 times with 75 mM aq orthophosphoric acid, plates were dried, scintillant added and incorporated radioactivity measured in a scintillation counter (TopCount, Packard Instruments, Pangbourne, Berks, UK). Compounds for kinase assay were made up as 10 mM stocks in DMSO and diluted into 10% DMSO in assay buffer.

[7] = biological target: T2, GSK3β (Homo sapiens, UniProt P49841); assay: GSK3β in vitro kinase assay; format: biochemical; settings: recombinant human GSK3β, 100 μM ATP
T2 construct: purchased New England Biolabs
Outline: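 Radiometric filter-binding assay with GSK3β (1.5 units), 200 μM CREB phosphopeptide, 100 μM ATP plus [γ-32P]ATP, in 20 mM Tris HCl pH7.5, 5 mM DTT, 15 mM MgCl2, 2% DMSO; 30 min at 30° C, stopped with phosphoric acid. 32P incorporation counted by scintillation; IC50 from 10-point titration.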

[8] = biological target: CDK2/cyclin A (Homo sapiens, UniProt P24941); assay: Kinase assay CDK2/cyclin A; format: biochemical; settings: Ki calculated (Cheng-Prusoff) from experimentally determined IC50 and Km,ATP; read-out: Kinase Inhibition Ki CDK2 - cyclin A
Outline: as §1

[9] = biological target: CDK2/cyclin E (Homo sapiens, UniProt P24941); assay: Kinase assay CDK2/cyclin E; format: biochemical; settings: Ki calculated (Cheng-Prusoff) from experimentally determined IC50 and Km,ATP; read-out: Kinase Inhibition Ki CDK2 - cyclin E
Outline: as §1

[10] = biological target: T3, GSK3α (Homo sapiens, UniProt P49840); assay: GSK3α in vitro kinase assay; format: biochemical; settings: recombinant human GSK3α, 100 μM ATP
T3 construct: purchased Upstate
Description: Both isoforms of GSK3 (α and β) are involved in the regulation of glycogen synthase activity—key enzyme in the glycogen metabolism. The inhibitory potency of example compounds was determined using in vitro kinase assays with recombinant human GSK3-α and -β; the IC50 values determined are presented in Table 9.
A 10-point titration was set up to determine the IC50 values of selected example compounds against GSK3β. Assays were performed using 96-well microtiter plates with a final volume of 25 μL per well. Each assay contained 1.5 units of GSK3β(New England Biolabs), 200 μM CREB phosphopeptide ([…]pSYR, Alta Biosciences), 20 mM Tris HCl pH7.5, 5 mM DTT, 15 mM MgCl2 supplemented with 100 μM ATP and 0.5 μCi of [γ-^32P] ATP plus or minus inhibitor in 2% DMSO. Assays were carried out for 30 minutes at 30° C. before stopping the reaction by the addition of an equal volume of 75 mM aqueous phosphoric acid. Samples were then spotted onto a p81 filterplate (Whatman) and a vacuum was applied. Wells were washed 3 times with 200 μL of dilute aqueous phosphoric acid before the addition of 50 μL Microscint 40 per well. Incorporation of radioactivity was determined on a Topcount microplate scintillation counter (Packard).
GSK3α (Upstate) was assayed exactly as described above except that 1 ng of enzyme was added per assay point.

[11] = Oral glucose tolerance in male ZDF fa/fa rats; format: in vivo, rat
Description: (§3) The ability of example compounds of the present invention to improve glucose metabolism was tested in 12-13 week old male ZDF fa/fa rats. The test animals (10-15 mmol/L fasting glucose level) were dosed twice at 30 mg/kg and the glucose challenge was given at time 0. […] Most of these blood levels were below the EC50 values determined in cellular assays.
(§4) 12-13 weeks old male ZDF fa/fa rats were used to study the effect of example compounds on oral glucose tolerance. […] Body weight was recorded three times per week. Test compounds were dissolve in a formulation of 10% DMSO, 5% Tween, 5% Span 20, 30% PEG 400 and 50% water (v/v) to provide final solutions at 5 mg/mL concentration. Each experimental group contained 7 animals. After an 16 h overnight fast the test compounds were administered at 30 mg/kg per os twice (at −270 min and −30 min) before the oral glucose tolerance test was commenced (2 g glucose/kg per os as a 40% solution introduced via feeding tube). A control group was dosed in a similar manner with the vehicle only. Blood sampling for blood glucose measurement (20 μL blood) was performed at −270, 0, 15, 30, 60, 90, 120 and 180 min. Mixed venous blood was collected from the tail vein into 20-μL glass capillaries, which were placed in a standard tube filled with 1 mL solution for hemolysis. Glucose levels were measured using the glucose oxidase procedure (Super G Glukosemessgeraet; Dr Mueller Geraetebau, Freital, Germany). In addition, 50 μL blood samples were taken at 30 and 60 min after the glucose dose, placed in heparinized tubes, which were then frozen immediately in liquid nitrogen. The bioanalytical method used employed isocratic elution liquid chromatography—tandem mass spectrometry in electrospray positive ion multiple reaction monitoring mode.

[12] = Blood levels of test compounds in ZDF fa/fa rats; format: in vivo, rat; settings: 30 mg/kg per os twice
Description: as §3, §4

[13] = biological target: T4, DYRK1A (Homo sapiens, UniProt Q13627); assay: DYRK1A in vitro kinase assay; format: biochemical; settings: recombinant human DYRK1A, 100 μM ATP
T4 construct: purchased Upstate
Excerpt: Dual specificity tyrosine phosphorylation regulated kinase 1A (DYRK1A) has been proposed, amongst other functions, to play a role in the regulation of glycogen metabolism in a way similar to GSK3. Some of the example compounds of the present invention were screened against recombinant human DYRK1A in vitro and the determined IC50 values are shown in Table 9. According to our current knowledge inhibition of DYRK1A will have additional positive effect on stimulation of glycogen synthase.
A 10-point titration was set up to determine the IC50 values of selected example compounds against DYRK1A. Assays were performed using 96-well microtiter plates and a final volume of 25 μL/well. Each assay contained 2.3 milliunits of DYRK1A (Upstate), 50 μM Woodtide peptide ([…], Upstate), 20 mM Tris HCl pH 8.0, 10 mM DTT, 5 mM EGTA, 1 mM NaVO3, 31 mM β-glycerophosphate, 15 mM MgCl2 supplemented with 100 μM ATP and 0.5 μCi of [γ-^32P] ATP plus or minus inhibitor in 2% DMSO. Assays were carried out for 60 minutes at 30° C. before stopping the reaction by the addition of an equal volume of 75 mM aqueous phosphoric acid. Samples were then spotted onto a p81 filterplate (Whatman) and a vacuum applied. Wells were washed 3 times with 200 μL of dilute aqueous phosphoric acid before the addition of 50 μL Microscint 40 per well. Incorporation of radioactivity was determined on a Topcount microplate scintillation counter (Packard).

[14] = ZDF fa/fa rats, oral glucose tolerance, 30 mg/kg per os twice (−270 and −30 min)
[15] = male ZDF fa/fa rats, 30 mg/kg per os twice, oral glucose tolerance test

Chain of CDK1/cyclin B (P06493 whole entry, species assumed): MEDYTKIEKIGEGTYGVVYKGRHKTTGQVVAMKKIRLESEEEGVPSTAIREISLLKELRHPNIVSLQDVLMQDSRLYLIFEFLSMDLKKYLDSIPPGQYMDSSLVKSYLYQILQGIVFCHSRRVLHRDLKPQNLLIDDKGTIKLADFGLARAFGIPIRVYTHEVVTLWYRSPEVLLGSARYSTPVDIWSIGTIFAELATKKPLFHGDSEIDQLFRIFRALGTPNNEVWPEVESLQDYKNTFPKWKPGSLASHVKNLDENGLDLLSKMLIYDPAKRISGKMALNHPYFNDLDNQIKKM
Chain of CDK1/cyclin B (P14635 whole entry partner, species assumed): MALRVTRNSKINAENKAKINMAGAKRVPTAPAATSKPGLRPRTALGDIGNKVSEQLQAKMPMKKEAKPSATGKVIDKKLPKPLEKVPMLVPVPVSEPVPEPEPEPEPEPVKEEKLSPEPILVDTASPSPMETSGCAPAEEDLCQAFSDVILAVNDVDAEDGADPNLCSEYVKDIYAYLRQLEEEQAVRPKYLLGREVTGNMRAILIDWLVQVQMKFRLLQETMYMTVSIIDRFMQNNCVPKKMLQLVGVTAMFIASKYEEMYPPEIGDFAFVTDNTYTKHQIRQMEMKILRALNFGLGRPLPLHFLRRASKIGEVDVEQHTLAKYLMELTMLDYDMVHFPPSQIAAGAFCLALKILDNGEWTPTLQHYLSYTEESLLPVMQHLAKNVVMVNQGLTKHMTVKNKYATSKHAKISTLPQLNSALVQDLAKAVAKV
Chain of CDK9/cyclin T1 (P50750 whole entry, species assumed): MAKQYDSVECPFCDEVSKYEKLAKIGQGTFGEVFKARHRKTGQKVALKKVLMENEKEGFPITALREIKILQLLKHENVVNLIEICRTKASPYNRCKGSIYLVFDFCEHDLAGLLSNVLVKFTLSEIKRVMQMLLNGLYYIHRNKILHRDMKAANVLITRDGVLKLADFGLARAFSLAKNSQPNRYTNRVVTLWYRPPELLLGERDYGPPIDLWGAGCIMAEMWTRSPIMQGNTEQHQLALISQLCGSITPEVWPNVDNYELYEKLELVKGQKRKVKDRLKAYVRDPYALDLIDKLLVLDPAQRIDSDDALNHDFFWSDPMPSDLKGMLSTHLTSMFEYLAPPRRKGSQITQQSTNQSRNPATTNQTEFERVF
Chain of CDK9/cyclin T1 (O60563 whole entry partner, species assumed): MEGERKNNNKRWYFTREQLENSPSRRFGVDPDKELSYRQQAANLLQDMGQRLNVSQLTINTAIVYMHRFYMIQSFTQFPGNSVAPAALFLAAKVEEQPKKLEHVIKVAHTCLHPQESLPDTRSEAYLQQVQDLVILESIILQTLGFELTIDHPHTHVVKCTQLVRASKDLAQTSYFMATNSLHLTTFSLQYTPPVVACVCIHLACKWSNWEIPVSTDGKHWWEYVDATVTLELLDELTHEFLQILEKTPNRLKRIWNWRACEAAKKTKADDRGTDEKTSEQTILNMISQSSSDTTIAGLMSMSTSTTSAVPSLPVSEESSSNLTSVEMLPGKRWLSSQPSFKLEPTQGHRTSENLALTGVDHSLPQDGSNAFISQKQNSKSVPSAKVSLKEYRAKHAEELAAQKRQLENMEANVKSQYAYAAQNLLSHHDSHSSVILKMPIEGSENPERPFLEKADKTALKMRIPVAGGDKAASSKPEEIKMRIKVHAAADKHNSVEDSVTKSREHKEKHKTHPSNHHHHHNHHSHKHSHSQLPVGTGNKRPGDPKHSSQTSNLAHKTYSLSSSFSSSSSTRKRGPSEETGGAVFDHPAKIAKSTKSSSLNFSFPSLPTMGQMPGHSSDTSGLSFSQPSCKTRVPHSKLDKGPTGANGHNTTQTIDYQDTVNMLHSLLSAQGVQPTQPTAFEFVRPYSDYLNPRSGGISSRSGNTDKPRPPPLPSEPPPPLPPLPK
Chain of CDK4/cyclin D1 (P11802 whole entry, species assumed): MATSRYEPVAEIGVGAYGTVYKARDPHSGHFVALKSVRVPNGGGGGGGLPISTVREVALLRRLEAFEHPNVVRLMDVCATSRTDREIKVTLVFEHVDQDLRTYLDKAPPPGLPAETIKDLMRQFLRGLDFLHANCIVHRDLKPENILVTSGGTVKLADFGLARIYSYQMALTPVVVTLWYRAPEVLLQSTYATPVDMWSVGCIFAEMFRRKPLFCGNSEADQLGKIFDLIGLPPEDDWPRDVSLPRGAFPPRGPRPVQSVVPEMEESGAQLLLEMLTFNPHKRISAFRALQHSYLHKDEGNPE
Chain of CDK4/cyclin D1 (P24385 whole entry partner, species assumed): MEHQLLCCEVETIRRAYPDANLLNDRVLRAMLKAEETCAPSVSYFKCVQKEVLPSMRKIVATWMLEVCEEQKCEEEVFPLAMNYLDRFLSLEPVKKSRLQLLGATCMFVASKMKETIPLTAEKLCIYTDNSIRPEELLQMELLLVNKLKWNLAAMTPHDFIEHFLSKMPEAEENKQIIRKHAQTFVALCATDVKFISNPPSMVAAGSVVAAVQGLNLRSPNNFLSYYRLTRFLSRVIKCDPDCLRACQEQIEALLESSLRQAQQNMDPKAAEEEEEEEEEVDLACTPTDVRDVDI
T3 sequence (P49840 whole entry): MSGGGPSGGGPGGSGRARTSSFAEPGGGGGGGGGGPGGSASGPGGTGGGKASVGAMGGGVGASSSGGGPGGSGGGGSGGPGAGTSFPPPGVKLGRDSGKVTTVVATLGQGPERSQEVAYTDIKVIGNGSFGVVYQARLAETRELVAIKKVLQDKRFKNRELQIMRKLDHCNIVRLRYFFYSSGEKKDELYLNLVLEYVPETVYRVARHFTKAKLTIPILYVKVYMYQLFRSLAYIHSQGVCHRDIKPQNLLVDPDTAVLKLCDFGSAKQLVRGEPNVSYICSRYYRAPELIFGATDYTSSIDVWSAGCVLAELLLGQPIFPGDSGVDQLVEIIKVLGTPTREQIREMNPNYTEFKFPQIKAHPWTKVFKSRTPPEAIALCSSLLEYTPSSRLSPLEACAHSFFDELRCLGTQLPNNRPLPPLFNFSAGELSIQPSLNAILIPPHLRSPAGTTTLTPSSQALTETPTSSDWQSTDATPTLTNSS
T2 sequence (P49841 whole entry): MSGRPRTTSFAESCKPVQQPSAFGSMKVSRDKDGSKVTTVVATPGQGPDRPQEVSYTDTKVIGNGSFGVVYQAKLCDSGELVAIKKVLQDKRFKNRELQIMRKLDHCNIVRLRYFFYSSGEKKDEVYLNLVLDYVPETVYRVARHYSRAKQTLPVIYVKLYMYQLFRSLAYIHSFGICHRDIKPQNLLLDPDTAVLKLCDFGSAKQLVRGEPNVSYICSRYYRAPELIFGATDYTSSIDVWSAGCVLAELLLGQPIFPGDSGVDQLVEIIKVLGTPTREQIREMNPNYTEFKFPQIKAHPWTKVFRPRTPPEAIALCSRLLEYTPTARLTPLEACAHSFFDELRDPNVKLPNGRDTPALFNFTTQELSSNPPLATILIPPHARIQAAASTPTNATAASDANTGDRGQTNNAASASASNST
Chain of CDK7/cyclin H (P50613 whole entry, species assumed): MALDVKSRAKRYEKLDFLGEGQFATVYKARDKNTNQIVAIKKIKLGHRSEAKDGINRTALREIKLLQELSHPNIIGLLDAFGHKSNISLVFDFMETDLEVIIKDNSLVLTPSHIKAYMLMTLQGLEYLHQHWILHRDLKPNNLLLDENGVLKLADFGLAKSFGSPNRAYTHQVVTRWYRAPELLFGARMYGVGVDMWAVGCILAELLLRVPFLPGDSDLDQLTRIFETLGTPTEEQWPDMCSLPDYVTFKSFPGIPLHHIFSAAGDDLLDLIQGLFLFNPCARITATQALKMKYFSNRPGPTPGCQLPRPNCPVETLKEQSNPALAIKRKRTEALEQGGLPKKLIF
Chain of CDK7/cyclin H (P51946 whole entry partner, species assumed): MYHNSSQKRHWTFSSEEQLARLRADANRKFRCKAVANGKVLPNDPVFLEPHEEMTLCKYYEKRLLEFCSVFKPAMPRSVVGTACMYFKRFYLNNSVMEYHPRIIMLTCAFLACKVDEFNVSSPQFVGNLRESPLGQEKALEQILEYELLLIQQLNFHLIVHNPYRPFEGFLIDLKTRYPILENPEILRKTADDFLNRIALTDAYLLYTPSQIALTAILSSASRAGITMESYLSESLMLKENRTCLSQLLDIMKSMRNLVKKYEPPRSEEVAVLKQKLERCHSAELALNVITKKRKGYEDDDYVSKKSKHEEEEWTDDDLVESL

| SMILES | Ki [1] [nM] | anti-HIV activity based on TI (therapeutic index: TC50/IC50) [2] | Ki [3] [nM] | Ki [4] [nM] | Ki [5] [nM] | Ki [6] [nM] | IC50 [7] [nM] | Ki [8] [nM] | Ki [9] [nM] | IC50 [10] [nM] | % Glucose Decrease AUC (−270–180 min) [11, 14] [%] | % Glucose decrease-AUC (0–180 min) [11, 14] | decreased blood glucose levels [11, 15] | glucose AUC [11, 15] | oral bioavailability (blood levels at 30 and 60 min after the glucose load) ([12]; male ZDF fa/fa rats) | concentration at 30 min ([12]; male, rat, whole blood, oral, ZDF fa/fa rats, time 30 min) [ng/mL] | concentration at 60 min ([12]; male, rat, whole blood, oral, ZDF fa/fa rats, time 60 min) [ng/mL] | IC50 [13] [nM] |
| --- | --- | --- | --- | --- | --- | --- | --- | --- | --- | --- | --- | --- | --- | --- | --- | --- | --- | --- |
| CC(=O)NCc1ccc(Nc2nccc(-c3sc(=O)n(C)c3C)n2)cc1 [Compound 59, N-{4-[4-(3,4-Dimethyl-2-oxo-2,3-dihydro-thiazol-5-yl)-pyrimidin-2-ylamino]-benzyl}-acetamide] | 85 | Active | 7 | 210 | 97 | 110 | 18.3 | 160 | 1.6 |  |  |  |  |  |  |  |  |  |
| Cc1c(-c2ccnc(Nc3cccc(S(N)(=O)=O)c3)n2)sc(=O)n1C [Compound 60, 3-[4-(3,4-Dimethyl-2-oxo-2,3-dihydro-thiazol-5-yl)-pyrimidin-2-ylamino]-benzenesulfonamide] | 21 | Active | 0.3 | 39 | 22 | 30 | 1.8 | 21 | 3.4 |  |  |  |  |  |  |  |  |  |
| Cc1c(-c2ccnc(Nc3ccc(F)cc3)n2)sc(=O)n1C [Compound 2, 5-[2-(4-Fluoro-phenylamino)-pyrimidin-4-yl]-3,4-dimethyl-3H-thiazol-2-one] |  | Active | 0.8 |  |  | 350 |  |  |  |  |  |  |  |  |  |  |  |  |
| Cc1c(-c2ccnc(Nc3ccc(N4CCNCC4)cc3)n2)sc(=O)n1C [Compound 38, 3,4-Dimethyl-5-[2-(4-piperazin-1-yl-phenylamino)-pyrimidin-4-yl]-3H-thiazol-2-one] | 470 | Active | 10 | 38 | 50 | 88 |  | 300 | 180 |  |  |  |  |  |  |  |  |  |
| Cc1c(-c2ccnc(Nc3ccc(C#N)c(C(F)(F)F)c3)n2)sc(=O)n1C [Compound 70, 4-[4-(3,4-Dimethyl-2-oxo-2,3-dihydro-thiazol-5-yl)-pyrimidin-2-ylamino]-2-trifluoromethyl-benzonitrile] |  |  |  |  |  |  | 6.8 |  |  | 3.6 |  |  |  |  |  |  |  |  |
| Cc1c(-c2ccnc(Nc3ccc(Cl)c(C(F)(F)F)c3)n2)sc(=O)n1C [Compound 66, 5-[2-(4-Chloro-3-trifluoromethyl-phenylamino)-pyrimidin-4-yl]-3,4-dimethyl-3H-thiazol-2-one] |  |  | 21 | 2300 |  |  | 15 |  | 200 | 32 | 20 | 17* % | statistically significant | moderate decrease | some oral bioavailability | 157 | 162 | 356 |
| Cc1c(-c2ccnc(Nc3cccc(S(=O)(=O)NCc4ccccc4)c3)n2)sc(=O)n1C [Compound 77, N-Benzyl-3-[4-(3,4-dimethyl-2-oxo-2,3-dihydro-thiazol-5-yl)-pyrimidin-2-ylamino]-benzenesulfonamide] |  |  |  |  |  |  | 70.9 |  |  | 61.5 |  |  |  |  |  |  |  |  |
